PubChem BioAssay (NCI)
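Where inhibition never reached the appropriate level, the endpoint shown equals the highest concentration tested. Otherwise, values were interpolated linearly from a five-concentration, 48-hour dose response in 96-well plates. GI50: concentration for 50% inhibition of growth. TGI marks complete inhibition of growth.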

Tests used:
Assay in all cases: DTP human tumour cell line panel, 48 h
[1] = tested on: T-47D breast
[2] = tested on: ACHN renal
[3] = tested on: MALME-3M melanoma
[4] = tested on: A549 NSCLC
[5] = tested on: PC-3 prostate
[6] = tested on: SW-620 colon
[7] = tested on: SK-MEL-2 melanoma
[8] = tested on: UO-31 renal
[9] = tested on: MOLT-4 leukemia
[10] = tested on: IGROV1 ovarian
[11] = tested on: HCT-15 colon
[12] = tested on: HT29 colon
[13] = tested on: SK-MEL-28 melanoma
[14] = tested on: UACC-257 melanoma
[15] = tested on: A498 renal
[16] = tested on: DU-145 prostate
[17] = tested on: SF-539 CNS
[18] = tested on: SNB-75 CNS
[19] = tested on: SNB-19 CNS
[20] = tested on: MDA-MB-231 breast
[21] = tested on: OVCAR-5 ovarian
[22] = tested on: UACC-62 melanoma
[23] = tested on: M14 melanoma
[24] = tested on: RPMI-8226 leukemia
[25] = tested on: MDA-MB-435
[26] = tested on: HCT-116 colon
[27] = tested on: HOP-62 NSCLC
[28] = tested on: HL-60(TB) leukemia
[29] = tested on: COLO 205 colon
[30] = tested on: OVCAR-3 ovarian
[31] = tested on: RXF 393 renal
[32] = tested on: NCI/ADR-RES ovarian
[33] = tested on: NCI-H522 lung
[34] = tested on: HOP-92 NSCLC
[35] = tested on: SN12C renal
[36] = tested on: SR leukemia
[37] = tested on: OVCAR-4 ovarian
[38] = tested on: NCI-H460 lung
[39] = tested on: CCRF-CEM leukemia
[40] = tested on: TK-10 renal
[41] = tested on: MCF7 breast
[42] = tested on: OVCAR-8 ovarian
[43] = tested on: SF-295 CNS
[44] = tested on: U251 CNS
[45] = tested on: BT-549 breast
[46] = tested on: NCI-H226 lung
[47] = tested on: SF-268 CNS
[48] = tested on: KM12 colon
[49] = tested on: SK-OV-3 ovarian
[50] = tested on: LOX IMVI melanoma
[51] = tested on: HS 578T breast
[52] = tested on: K-562 leukemia
[53] = tested on: CAKI-1 renal
[54] = tested on: 786-0 renal
[55] = tested on: SK-MEL-5 melanoma
[56] = tested on: HCC-2998 colon
[57] = tested on: NCI-H23 lung
[58] = tested on: EKVX NSCLC

## Cn1cc(C2=C(c3c4n(c5ccccc35)CCCCC4)C(=O)NC2=O)c2ccccc21
[1]
  GI50: 8.64 µM
  TGI: > 25000 nM
[2]
  GI50: 6.05 µM
  TGI: > 25000 nM
[3]
  GI50: > 11500 nM
  TGI: > 25000 nM
[4]
  GI50: 3720 nM
  TGI: > 25000 nM
[5]
  GI50: 3.2 µM
  TGI: > 25 µM
[6]
  GI50: 2190 nM
  TGI: > 25000 nM
[7]
  GI50: 2120 nM
  TGI: > 18800 nM
[8]
  GI50: 5750 nM
  TGI: > 25000 nM
[9]
  GI50: 7.04 µM
  TGI: > 25000 nM
[10]
  GI50: 3.55 µM
  TGI: > 25 µM
[11]
  GI50: 1690 nM
  TGI: > 25000 nM
[12]
  GI50: 2570 nM
  TGI: > 25 µM
[13]
  GI50: 12.6 µM
  TGI: > 25 µM
[14]
  GI50: > 25000 nM
  TGI: > 25000 nM
[15]
  GI50: 1050 nM
  TGI: 19.4 µM
[16]
  GI50: 5400 nM
  TGI: > 17300 nM
[17]
  GI50: 2860 nM
  TGI: 15.5 µM
[18]
  GI50: 1400 nM
  TGI: 11.6 µM
[19]
  GI50: > 18100 nM
  TGI: > 25 µM
[20]
  GI50: 6.42 µM
  TGI: > 25000 nM
[21]
  GI50: > 19500 nM
  TGI: > 25000 nM
[22]
  GI50: 1270 nM
  TGI: > 25000 nM
[23]
  GI50: 4690 nM
  TGI: > 25000 nM
[24]
  GI50: 6.88 µM
  TGI: > 19.2 µM
[25]
  GI50: 700 nM
  TGI: 3010 nM
[26]
  GI50: 4210 nM
  TGI: > 25000 nM
[27]
  GI50: > 12500 nM
  TGI: > 25000 nM
[28]
  GI50: 1390 nM
  TGI: 16.2 µM
[29]
  GI50: 4560 nM
  TGI: > 18800 nM
[30]
  GI50: 1210 nM
  TGI: 8.05 µM
[31]
  GI50: 1420 nM
  TGI: 7.23 µM
[32]
  GI50: 2170 nM
  TGI: > 25000 nM
[33]
  GI50: 1020 nM
  TGI: 8.14 µM
[34]
  GI50: 1480 nM
  TGI: > 25000 nM
[35]
  GI50: 9.88 µM
  TGI: > 25 µM
[36]
  GI50: 1190 nM
  TGI: > 20900 nM
[37]
  GI50: 7.32 µM
  TGI: > 25 µM
[38]
  GI50: 6.51 µM
  TGI: > 25 µM
[39]
  GI50: 5210 nM
  TGI: > 22700 nM
[40]
  GI50: 6.38 µM
  TGI: > 25000 nM
[41]
  GI50: 1360 nM
  TGI: > 25000 nM
[42]
  GI50: 10.7 µM
  TGI: > 25 µM
[43]
  GI50: 1310 nM
  TGI: > 14700 nM
[44]
  GI50: 6.61 µM
  TGI: > 25000 nM
[45]
  GI50: > 11700 nM
  TGI: > 25000 nM
[46]
  GI50: 12 µM
  TGI: > 25000 nM
[47]
  GI50: 4900 nM
  TGI: > 25 µM
[48]
  GI50: 2970 nM
  TGI: > 25 µM
[49]
  GI50: 7.11 µM
  TGI: > 25 µM
[50]
  GI50: 9.4 µM
  TGI: > 25000 nM
[51]
  GI50: 1700 nM
  TGI: 19.8 µM
[52]
  GI50: 1380 nM
  TGI: > 25000 nM
[53]
  GI50: 2530 nM
  TGI: > 20200 nM
[54]
  GI50: 7.76 µM
  TGI: > 25000 nM
[55]
  GI50: 2660 nM
  TGI: 13.1 µM
[56]
  GI50: 12.4 µM
  TGI: > 25 µM
[57]
  GI50: 10.6 µM
  TGI: > 25000 nM

## CC(=O)OC1OC([C@@H]2c3cccc(O)c3C(=O)c3c(O)cc(C)cc32)C(O)C(O)C1O (stereo partly drawn)
[1]
  GI50: 0.306 µM
  TGI: 870 nM
[2]
  GI50: 0.0319 µM
  TGI: 282 nM
[3]
  GI50: 28.8 nM
  TGI: 90.2 nM
[4]
  GI50: 109 nM
  TGI: 1940 nM
[5]
  GI50: < 0.01 µM
[6]
  GI50: 23.1 nM
  TGI: 1730 nM
[7]
  GI50: 162 nM
  TGI: 2140 nM
[8]
  GI50: 41.9 nM
  TGI: 1110 nM
[9]
  GI50: 0.0384 µM
  TGI: 662 nM
[11]
  GI50: 30.5 nM
  TGI: 1460 nM
[12]
  GI50: 59 nM
  TGI: > 100 µM
[13]
  GI50: 0.0514 µM
  TGI: 3.6 µM
[14]
  GI50: 95.1 nM
  TGI: 1330 nM
[15]
  GI50: 44.4 nM
  TGI: 0.358 µM
[16]
  GI50: 137 nM
  TGI: 1690 nM
[17]
  GI50: 41.9 nM
  TGI: 1.47 µM
[19]
  GI50: 392 nM
  TGI: 21.4 µM
[20]
  GI50: < 0.0153 µM
  TGI: 37.7 nM
[21]
  GI50: 32.3 nM
  TGI: 360 nM
[22]
  GI50: 21.1 nM
  TGI: 1520 nM
[23]
  GI50: 120 nM
  TGI: 1900 nM
[24]
  GI50: < 0.0153 µM
  TGI: < 0.0292 µM
[25]
  GI50: < 18.5 nM
  TGI: 691 nM
[26]
  GI50: 108 nM
  TGI: 1200 nM
[58]
  GI50: 26 nM
  TGI: 368 nM
[27]
  GI50: 98.5 nM
  TGI: 995 nM
[28]
  GI50: 17.3 nM
  TGI: 0.0493 µM
[29]
  GI50: 42.9 nM
  TGI: 2680 nM
[30]
  GI50: < 18 nM
  TGI: 0.0485 µM
[31]
  GI50: 350 nM
  TGI: 1.58 µM
[32]
  GI50: 39.1 nM
  TGI: 773 nM
[33]
  TGI: 0.382 µM
[34]
  GI50: 23.3 nM
  TGI: 71.7 nM
[35]
  GI50: < 0.0179 µM
  TGI: < 0.0321 µM
[36]
  GI50: 32 nM
  TGI: 85.9 nM
[38]
  GI50: 0.108 µM
[39]
  GI50: 49.4 nM
  TGI: 1630 nM
[40]
  GI50: 0.0286 µM
  TGI: 260 nM
[41]
  GI50: 282 nM
  TGI: 2780 nM
[42]
  GI50: 0.122 µM
  TGI: 4 µM
[43]
  GI50: < 16.6 nM
  TGI: 119 nM
[44]
  GI50: < 0.0152 µM
  TGI: 257 nM
[45]
  GI50: 18.1 nM
  TGI: 778 nM
[46]
  GI50: 0.012 µM
  TGI: 80.6 nM
[47]
  GI50: 106 nM
  TGI: 4.52 µM
[48]
  GI50: < 10 nM
[49]
  GI50: 0.134 µM
  TGI: 3.17 µM
[50]
  GI50: < 0.0141 µM
  TGI: 48.1 nM
[51]
  GI50: < 10.3 nM
[52]
  GI50: 21.6 nM
  TGI: 1390 nM
[53]
  GI50: 26.9 nM
  TGI: 241 nM
[54]
  GI50: 0.13 µM
  TGI: 1270 nM
[55]
  GI50: < 11.9 nM
  TGI: 0.0294 µM
[56]
  GI50: < 0.01 µM
[57]
  GI50: < 0.0199 µM
  TGI: 216 nM
